Experimental data published in patent US11008282B2, “Bicyclic-compounds for use as a medicament, in particular for treatment of parkinson's disease” (CAPROTEC BIOANALYTICS GMBH, priority 2015, dated 2021).
“Also recorded” adds a separate entry of the source. Read-outs that look alike come from different tables or passages of the source.

Tests used:
COMT [1] = target: T1, COMT (Homo sapiens, UniProt P21964); experiment: COMT activity microplate assay (aesculetin methylation, fluorometric); assay type: biochemical
T1 construct: His; host or cells: E. coli BL21
T1 sequence (P21964 1-221 isoform P21964-2): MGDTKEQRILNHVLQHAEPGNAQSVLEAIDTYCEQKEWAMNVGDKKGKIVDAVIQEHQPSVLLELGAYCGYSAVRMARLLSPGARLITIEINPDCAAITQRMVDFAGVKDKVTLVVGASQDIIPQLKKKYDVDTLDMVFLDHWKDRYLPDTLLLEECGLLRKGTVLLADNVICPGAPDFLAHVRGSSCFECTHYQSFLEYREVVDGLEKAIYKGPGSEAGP

ADI1 = target: T2, ADI1 (Homo sapiens, UniProt Q9BV57); experiment: CCMS differential competition, HepG2 lysate, active capture compound CPT-224; assay type: binding; details: CPT-224 1 μM; for Fc: fold change assay vs competition, 50 μM competitor; for MS/MS: with 50 μM competitor, HepG2 lysate
T2 construct: performing CCMS experiments in the hepatoma-derived cell line HepG2; host or cells: HepG2 lysate
T2 sequence (Q9BV57 1-179): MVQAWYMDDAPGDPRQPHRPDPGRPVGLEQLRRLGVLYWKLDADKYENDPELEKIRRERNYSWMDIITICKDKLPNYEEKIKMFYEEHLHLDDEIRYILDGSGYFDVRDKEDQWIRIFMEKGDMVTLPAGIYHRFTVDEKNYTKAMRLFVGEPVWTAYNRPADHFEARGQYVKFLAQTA

CCBL2 = target: T3, CCBL2 (Homo sapiens, UniProt Q6YP21); experiment: as above; assay type: binding; details: CPT-224 1 μM; for Fc: fold change assay vs competition, 50 μM competitor; for MS/MS: with 50 μM competitor, HepG2 lysate
T3 construct: performing CCMS experiments in the hepatoma-derived cell line HepG2; host or cells: HepG2 lysate
T3 sequence (Q6YP21 whole entry): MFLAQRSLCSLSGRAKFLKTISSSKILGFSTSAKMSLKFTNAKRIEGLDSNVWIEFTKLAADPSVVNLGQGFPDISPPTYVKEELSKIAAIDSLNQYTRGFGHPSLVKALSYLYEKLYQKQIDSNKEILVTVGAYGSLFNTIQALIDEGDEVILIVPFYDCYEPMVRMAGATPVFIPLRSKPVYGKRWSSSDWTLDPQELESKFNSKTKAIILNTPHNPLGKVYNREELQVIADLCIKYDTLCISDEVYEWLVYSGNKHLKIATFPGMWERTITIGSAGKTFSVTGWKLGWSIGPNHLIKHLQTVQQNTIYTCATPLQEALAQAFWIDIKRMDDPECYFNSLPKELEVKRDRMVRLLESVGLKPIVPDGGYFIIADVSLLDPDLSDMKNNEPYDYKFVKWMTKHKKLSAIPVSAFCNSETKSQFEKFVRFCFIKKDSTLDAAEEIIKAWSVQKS

GCDH = target: T4, GCDH (Homo sapiens, UniProt Q92947); experiment: as above; assay type: binding; details: CPT-224 1 μM; for Fc: fold change assay vs competition, 50 μM competitor; for MS/MS: with 50 μM competitor, HepG2 lysate
T4 construct: performing CCMS experiments in the hepatoma-derived cell line HepG2; host or cells: HepG2 lysate
T4 sequence (Q92947 45-438): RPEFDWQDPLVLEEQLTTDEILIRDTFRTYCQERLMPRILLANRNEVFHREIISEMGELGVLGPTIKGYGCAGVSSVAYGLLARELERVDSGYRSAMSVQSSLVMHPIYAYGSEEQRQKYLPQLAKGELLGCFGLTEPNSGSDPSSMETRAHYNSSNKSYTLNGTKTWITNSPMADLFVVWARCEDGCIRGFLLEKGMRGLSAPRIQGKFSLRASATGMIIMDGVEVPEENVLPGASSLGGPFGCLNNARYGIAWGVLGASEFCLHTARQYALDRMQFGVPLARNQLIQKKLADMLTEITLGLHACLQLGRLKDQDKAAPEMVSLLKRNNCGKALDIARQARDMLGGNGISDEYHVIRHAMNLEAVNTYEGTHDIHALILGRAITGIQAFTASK

COMT [2] = target: T5, COMT (Homo sapiens, UniProt P21964); experiment: CCMS differential competition and dose-dependent capturing, HepG2 lysate; assay type: binding; details: for Fc: fold change assay vs competition, 50 μM competitor; for Fc / MS/MS: CPT-224 1 μM; for MS/MS: with 50 μM competitor, HepG2 lysate; for competition of COMT capture, dose-dependent capturing: CPT-224 5 μM to 40 nM
T5 construct: performing CCMS experiments in the hepatoma-derived cell line HepG2; host or cells: HepG2 lysate
T5 sequence (P21964 1-271): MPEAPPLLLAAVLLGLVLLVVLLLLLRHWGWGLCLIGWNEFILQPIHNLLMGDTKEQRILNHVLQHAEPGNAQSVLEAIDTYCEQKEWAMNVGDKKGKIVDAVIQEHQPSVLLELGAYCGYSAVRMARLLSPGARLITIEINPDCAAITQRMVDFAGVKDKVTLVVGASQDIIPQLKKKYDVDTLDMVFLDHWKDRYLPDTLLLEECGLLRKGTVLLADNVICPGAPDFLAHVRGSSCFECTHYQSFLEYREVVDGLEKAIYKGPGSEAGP

AKR1B10 = target: T6, AKR1B10 (Homo sapiens, UniProt O60218); experiment: CCMS differential competition, HepG2 lysate, inactive capture compound CPT-220; assay type: binding; details: CPT-220 1 μM; for Fc: fold change assay vs competition, 50 μM competitor; for MS/MS: with 50 μM competitor, HepG2 lysate
T6 construct: performing CCMS experiments in the hepatoma-derived cell line HepG2; host or cells: HepG2 lysate
T6 sequence (O60218 whole entry): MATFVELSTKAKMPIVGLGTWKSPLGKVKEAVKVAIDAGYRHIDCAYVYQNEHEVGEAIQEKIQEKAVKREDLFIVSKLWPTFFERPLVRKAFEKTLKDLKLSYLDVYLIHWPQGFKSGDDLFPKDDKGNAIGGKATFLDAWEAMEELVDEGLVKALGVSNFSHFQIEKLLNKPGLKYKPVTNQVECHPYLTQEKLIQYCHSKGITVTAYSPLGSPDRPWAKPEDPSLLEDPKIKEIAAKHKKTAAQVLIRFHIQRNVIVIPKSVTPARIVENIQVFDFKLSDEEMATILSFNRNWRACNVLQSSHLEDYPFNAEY

NIPSNAP3A = target: T7, NIPSNAP3A (Homo sapiens, UniProt Q9UFN0); experiment: as above; assay type: binding; details: CPT-220 1 μM; for Fc: fold change assay vs competition, 50 μM competitor; for MS/MS: with 50 μM competitor, HepG2 lysate
T7 construct: performing CCMS experiments in the hepatoma-derived cell line HepG2; host or cells: HepG2 lysate
T7 sequence (Q9UFN0 1-247): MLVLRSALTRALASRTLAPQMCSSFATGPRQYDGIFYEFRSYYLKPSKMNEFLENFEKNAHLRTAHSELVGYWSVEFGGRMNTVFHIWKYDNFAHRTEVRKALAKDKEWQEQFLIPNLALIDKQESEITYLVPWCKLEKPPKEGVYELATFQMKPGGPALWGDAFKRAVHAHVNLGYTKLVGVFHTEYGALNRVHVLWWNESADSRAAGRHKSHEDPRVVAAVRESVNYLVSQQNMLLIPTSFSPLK

PDXK = target: T8, PDXK (Homo sapiens, UniProt O00764); experiment: as above; assay type: binding; details: CPT-220 1 μM; for Fc: fold change assay vs competition, 50 μM competitor; for MS/MS: with 50 μM competitor, HepG2 lysate
T8 construct: performing CCMS experiments in the hepatoma-derived cell line HepG2; host or cells: HepG2 lysate
T8 sequence (O00764 1-312): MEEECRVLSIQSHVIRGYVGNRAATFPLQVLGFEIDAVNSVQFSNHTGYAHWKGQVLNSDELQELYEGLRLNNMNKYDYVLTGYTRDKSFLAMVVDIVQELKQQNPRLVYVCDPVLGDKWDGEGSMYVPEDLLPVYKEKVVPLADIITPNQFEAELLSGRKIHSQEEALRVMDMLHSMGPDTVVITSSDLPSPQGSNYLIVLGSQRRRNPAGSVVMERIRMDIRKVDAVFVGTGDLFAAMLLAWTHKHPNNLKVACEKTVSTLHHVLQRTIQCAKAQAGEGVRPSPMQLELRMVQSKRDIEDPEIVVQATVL

COMT [3] = target: T1, COMT; experiment: Capture assay with CPT-224 followed by anti-COMT / streptavidin Western Blot; assay type: binding; details: for competition of COMT capturing (anti-COMT Western Blot): active capture compound, competitor; for competition of crosslinking of COMT with CPT-224 (anti-Streptavidin Western Blot): recombinant COMT
HepG2 cells [4] = experiment: Mitochondrial toxicity assessment (Glu/Gal), ATPlite / Mitochondrial ToxGlo assay; assay type: cell-based, human; details: for mitochondrial cytotoxicity: HepG2 cells (FIG. 7); for IC50 in galactose media compared to glucose media: ATP content, HepG2 cells
HepG2 cells [5] = details: human
HIBCH [6] = target: T9, HIBCH (Homo sapiens, UniProt Q6NVY1); experiment: Capture assay with CPT-224 followed by anti-HIBCH / streptavidin Western Blot; assay type: binding; design: made in house; host or cells: E. coli BL21; details: for competition of HIBCH capturing (anti-HIBCH Western Blot): CPT-224, competitor; for competition of crosslinking of HIBCH with CPT-224 (anti-Streptavidin Western Blot): recombinant HIBCH
T9 sequence (Q6NVY1 33-386): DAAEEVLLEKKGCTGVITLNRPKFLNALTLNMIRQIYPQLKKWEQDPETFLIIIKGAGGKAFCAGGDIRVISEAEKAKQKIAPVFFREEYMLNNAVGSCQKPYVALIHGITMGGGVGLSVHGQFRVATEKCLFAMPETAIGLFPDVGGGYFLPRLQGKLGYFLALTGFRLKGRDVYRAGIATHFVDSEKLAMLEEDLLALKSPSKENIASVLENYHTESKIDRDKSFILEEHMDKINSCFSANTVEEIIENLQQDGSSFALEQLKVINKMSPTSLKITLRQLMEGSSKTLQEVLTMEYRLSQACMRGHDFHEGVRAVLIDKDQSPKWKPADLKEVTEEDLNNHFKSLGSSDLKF

HIBCH [7] = target: T9, HIBCH; experiment: dCCMS and dose-dependent capturing, HepG2 lysate; assay type: binding; design: performing CCMS experiments in the hepatoma-derived cell line HepG2; host or cells: HepG2 lysate; details: for competition of HIBCH capture (dCCMS): CPT-224 1 μM, competitor 50 μM, HepG2 lysate; for binding to HIBCH: dCCMS (FIG. 5, FIG. 6)
[8] = in vivo; cited from earlier work
α-synuclein monomers = α-synuclein monomers (Homo sapiens, UniProt P37840); details: cited from earlier work
Aβ42 protofibrils = Aβ42 protofibrils (Homo sapiens, UniProt P05067); details: cited from earlier work
Chain of Aβ42 protofibrils (P05067 672-713 limits assumed): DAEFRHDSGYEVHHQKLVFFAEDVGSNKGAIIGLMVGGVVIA

[9] = target: enoyl-acyl carrier protein reductase (InhA) (Mycobacterium tuberculosis, UniProt P9WGR1); details: cited from earlier work
Chain of enoyl-acyl carrier protein reductase (InhA) (P9WGR1 whole entry, looked up): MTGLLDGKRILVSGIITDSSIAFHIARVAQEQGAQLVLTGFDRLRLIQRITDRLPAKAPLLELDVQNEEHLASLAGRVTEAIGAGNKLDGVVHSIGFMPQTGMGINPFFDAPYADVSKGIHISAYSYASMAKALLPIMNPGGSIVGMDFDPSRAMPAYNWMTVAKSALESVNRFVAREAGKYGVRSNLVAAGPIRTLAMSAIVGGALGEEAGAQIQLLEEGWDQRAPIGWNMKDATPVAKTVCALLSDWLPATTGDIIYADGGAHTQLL

| Compound | IC50 (COMT [1]) | Fc (ADI1) | MS/MS (ADI1) | Fc (CCBL2) | MS/MS (CCBL2) | Fc (GCDH) | MS/MS (GCDH) | Fc (COMT [2]) | MS/MS (COMT [2]) | Fc (AKR1B10) | MS/MS (AKR1B10) | Fc (NIPSNAP3A) | MS/MS (NIPSNAP3A) | Fc (PDXK) | mitochondrial cytotoxicity (HepG2 cells [4]) | mitochondrial membrane potential (HepG2 cells [5]; 50 μM) | mitochondrial membrane potential (HepG2 cells [5]; 100 μM) | competition of crosslinking of HIBCH with CPT-224 (anti-Streptavidin Western Blot) (HIBCH [6]) | competition of HIBCH capture (dCCMS) (HIBCH [7]) | IC50 in galactose media compared to glucose media (HepG2 cells [4]) | also measured |
| --- | --- | --- | --- | --- | --- | --- | --- | --- | --- | --- | --- | --- | --- | --- | --- | --- | --- | --- | --- | --- | --- |
| CCN1C(=O)S/C(=C\c2cc(O)c(O)c([N+](=O)[O-])c2)C1=O [CPT-212] | 179 nM | 4.29 | 0.3 | 3.40 | 2 | 6.34 | 2.3 | 10.90 | 5 | 3.1 | 0 | 3 | 0.025 | 24.9 | significantly higher than that of entacapone and CPT-401 (A1) | 20-30 % of untreated HepG2 cells | 0-5 % of the control | competed | specifically competed |  | MS/MS (PDXK): 3.75; competition of COMT capturing (anti-COMT Western Blot) (COMT [3]): signals were abolished; competition of crosslinking of COMT with CPT-224 (anti-Streptavidin Western Blot) (COMT [3]): competed; competition of HIBCH capturing (anti-HIBCH Western Blot) (HIBCH [6]): capturing was abolished; binding to HIBCH (HIBCH [7]): identified to bind |
| CCN(CC)C(=O)c1cc2cc(O)c(O)c([N+](=O)[O-])c2cc1C(=O)N(CC)CC [CPT-401, N2,N2,N3,N3-tetraethyl-6,7-dihydroxy-5-nitro-naphthalene-2,3-dicarboxamide] | 54 nM | 3.67 | 0.3 | 3.05 | 2.6 | 5.90 | 2.6 | 34.2 | 3 | 4.7 | 0.5 | 7.5 | 0 | 16 | low mitochondrial cytotoxicity | more than 50 % of untreated HepG2 cells | 40-50 % of the control | no competition | no competition was observed | much less than for CPT-212 (B1) | competition of COMT capture, dose-dependent capturing (COMT [2]): complete competition; MS/MS (PDXK): 0; competition of COMT capturing (anti-COMT Western Blot) (COMT [3]): signals were abolished; competition of crosslinking of COMT with CPT-224 (anti-Streptavidin Western Blot) (COMT [3]): competed |
| CCN(CC)C(=O)/C(C#N)=C/c1cc(O)c(O)c([N+](=O)[O-])c1 [entacapone, reference compound] |  |  |  |  |  |  |  |  |  |  |  |  |  |  |  | more than 50 % of untreated HepG2 cells | 40-50 % of the control |  |  | a much smaller effect | toxicity [8]: more favorable toxicity profile |
| Cc1ccc(C(=O)c2cc(O)c(O)c([N+](=O)[O-])c2)cc1 [tolcapone, reference compound] |  |  |  |  |  |  |  |  |  |  |  |  |  |  | mitochondrial toxicant; also recorded: significantly higher than that of entacapone and CPT-401 (A1) | 20-30 % of untreated HepG2 cells | 0-5 % of the control | competed | specifically identified when tolcapone was used as competitor | > 4 fold | competition of COMT capture, dose-dependent capturing (COMT [2]): complete competition; inhibition of aggregation of α-synuclein monomers (α-synuclein monomers): inhibit aggregation of α-synuclein monomers; inhibition of aggregation of Aβ42 protofibrils to mature amyloid fibrils (Aβ42 protofibrils): inhibit the aggregation of Aβ42 protofibrils to mature amyloid fibrils; binding and inhibition of InhA [9]: bind and inhibit; toxicity [8]: severe hepatotoxicity in several cases; competition of HIBCH capturing (anti-HIBCH Western Blot) (HIBCH [6]): capturing was abolished; competition of HIBCH capture, dose-dependent capturing (HIBCH [7]; CPT-224 5 μM to 40 nM): competed only with tolcapone; binding to HIBCH (HIBCH [7]): identified to bind |
